Read-outs that look alike come from different tables or passages of the source.
Legend:
[1] = system: rat intestinal segments; test: In situ single-pass rat intestinal perfusion (Peff); format: in vivo, Sprague–Dawley rats; conditions: low-permeability reference, 100 µg/mL in perfusion buffer
Protocol: The in situ single-pass intestinal effective permeability (Peff) of AT/DT dispersed in 0.5% DMSO and AT/DT-NE#E was evaluated in rats. Sprague–Dawley rats were selected due to their well-characterized gastrointestinal physiology, suitability for serial perfusion sampling, and widespread use in oral absorption and permeability studies. Prior to the procedure, the rats were fasted for 12–16 h with free access to water. Anesthesia was induced via intramuscular injection of a tiletamine·HCl–zolazepam mixture (1:1, w/w; 40 mg/kg). With the animals in a supine position, a midline longitudinal incision was made to expose the abdominal cavity. […]
After a 30 min equilibration period to establish steady-state conditions, outlet perfusates were collected at 15 min intervals over a period of 120 min. […] It was perfused under identical conditions, and fluorescence was measured at excitation/emission wavelengths of 494/512 nm using a multimode microplate reader (PerkinElmer).
Body temperature was maintained throughout the experiment using heated pads and a heat lamp. At the end of the study, the length and radius of each perfused intestinal segment were carefully measured without stretching. […]
The outlet concentrations of AT and DT were quantified via HPLC as described previously. […]

[2] = In vivo pharmacokinetics in rats; conditions: rat; for AUC(0-inf): read-out: AUCinf of DT; for AUC(0-t): read-out: AUClast of DT; for half-life: read-out: T1/2 of DT (converted)
Protocol: Pharmacokinetic parameters were calculated using a non-compartmental analysis model with WinNonlin® software version 5.3 (Pharsight Corp., Mountain View, CA, USA). All quantitative data are presented as mean ± standard deviation (SD) or standard error of the mean (SEM), as indicated. Statistical analyses were performed using one-way analysis of variance (ANOVA) to assess differences among groups, followed by Tukey’s post hoc test for multiple comparisons. A p-value less than 0.05 (p < 0.05) was considered statistically significant.

Peff [1] | Cmax ([2]; plasma, IV, DT 5 mg/kg) [ng/mL] | AUC(0-inf) ([2]; plasma, IV, DT 5 mg/kg) [ng·h/mL] | AUC(0-t) ([2]; plasma, IV, DT 5 mg/kg) [ng·h/mL] | half-life ([2]; plasma, IV, DT 5 mg/kg) [h] | Tmax ([2]; plasma, oral, DT 10 mg/kg) [h] | bioavailability ([2]; plasma, oral, DT 10 mg/kg) [%] | AUC(0-inf) ([2]; plasma, oral, DT 10 mg/kg) [ng·h/mL] | AUC(0-t) ([2]; plasma, oral, DT 10 mg/kg) [ng·h/mL] | half-life ([2]; plasma, oral, DT 10 mg/kg) [h] | Cmax of DT ([2]; oral, DT 10 mg/kg) [ng/mL] | Structure (SMILES)
0.001 ± 0.002 ×10^−4 cm/s | – | – | – | – | – | – | – | – | – | – | O=C1OC2(c3ccc(O)cc3Oc3cc(O)ccc32)c2ccccc21 [fluorescein]
– | 479 ± 45.3 | 4190 ± 264 | 1450 ± 109 | 8.33 ± 7.84 | 8 | 7.22 ± 0.924 | 264 ± 38.3 | 210 ± 26.8 | 8.67 ± 0.881 | 21.0 ± 5.17 | CC(=O)O[C@@]12CO[C@@H]1C[C@H](O)[C@@]1(C)C(=O)[C@H](O)C3=C(C)[C@@H](OC(=O)[C@H](O)[C@@H](NC(=O)OC(C)(C)C)c4ccccc4)C[C@@](O)([C@@H](OC(=O)c4ccccc4)[C@H]21)C3(C)C [DT, Docetaxel]

From publication PMC12298815 (Pharmaceutics, 2025)
